Assay results from ChEMBL document CHEMBL6114980, “Single or double lipid-modified ultra-short antimicrobial peptides for treating infections caused by resistant bacteria” (Eur J Med Chem, 2025).
Activity calls are given as the source filed them. The calls are words filed in the database; no cut-off is given here.

Experiments:
Klebsiella pneumoniae [1] = test: Induction of morphological changes in Klebsiella pneumoniae assessed as cell contraction at 2 times MIC measured after 30 mins by SEM analysis; type: functional, organism-based
Klebsiella pneumoniae [2] = test: Induction of morphological changes in Klebsiella pneumoniae assessed as cell aggregation at 2 times MIC measured after 30 mins by SEM analysis; type: functional, organism-based
Klebsiella pneumoniae [3] = test: Induction of morphological changes in Klebsiella pneumoniae assessed as cell adhesion at 2 times MIC measured after 30 mins by SEM analysis; type: functional, organism-based
Klebsiella pneumoniae [4] = test: Induction of morphological changes in Klebsiella pneumoniae assessed as cell contraction at 2 times MIC measured after 120 mins by SEM analysis; type: functional, organism-based
Klebsiella pneumoniae [5] = test: Induction of morphological changes in Klebsiella pneumoniae assessed as cell aggregation at 2 times MIC measured after 120 mins by SEM analysis; type: functional, organism-based
Klebsiella pneumoniae [6] = test: Induction of morphological changes in Klebsiella pneumoniae assessed as cell adhesion at 2 times MIC measured after 120 mins by SEM analysis; type: functional, organism-based
Escherichia coli [7] = test: Induction of cell membrane disruption in Escherichia coli assessed as PI uptake at 2 times MIC measured after 120 mins by PI staining based flow cytometry analysis (Rvb =<10 %); type: functional; conditions: 2 h
Escherichia coli [8] = test: Induction of cell membrane disruption in Escherichia coli assessed as PI uptake at 4 times MIC measured after 120 mins by PI staining based flow cytometry analysis; type: functional, organism-based
Cell membrane [9] = test: Induction of outer membrane permeabilization in Escherichia coli assessed as increase in fluorescence intensity measured for 10 mins by fluorescence based NPN uptake assay
Cell membrane [10] = test: Induction of outer membrane permeabilization in Escherichia coli assessed as increase in fluorescence intensity at 0.5 times MIC measured for 10 mins by fluorescence based NPN uptake assay
Cell membrane [11] = test: Induction of inner membrane permeabilization in Escherichia coli at 0.5 to 4 times MIC measured for 135 mins by absorbance based analysis
Cell membrane [12] = test: Induction of cytoplasmic membrane depolarization in Staphylococcus aureus assessed as increase in fluorescence intensity at 0.5 to 4 times MIC measured for 10 mins by DiSC3-5 dye based fluorescence assay; type: subcellular
Lipopolysaccharide (LPS) = test: Binding affinity to LPS (unknown origin) assessed as reduction in bacterial mortality at 2 times MIC preincubated with LPS for 1 hr followed by bacteria addition for 24 hrs by spectrophotometric analysis
Staphylococcus aureus [13] = test: Antibacterial activity against Staphylococcus aureus 25923 at sub-MIC concentration measured after 15 passages; type: functional, organism-based
Staphylococcus aureus [14] = test: Antibacterial activity against Staphylococcus aureus 25923 at sub-MIC concentration measured after 15 passages in presence of rifampin; type: functional, organism-based
Escherichia coli [15] = test: Antibacterial activity against Escherichia coli 25922 at sub-MIC concentration measured after 15 passages in presence of rifampin; type: functional, organism-based
Klebsiella pneumoniae [16] = test: Antibacterial activity against Klebsiella pneumoniae ATCC 700603 infected in male BALB/c mouse lung infection model assessed as reduction in number of inflammatory cells at 5 mg/kg, ip measured after 6 to 36 hrs; type: functional, organism-based; conditions: time 6-36 hrs
Staphylococcus aureus [17] = test: Antibacterial activity against methicillin resistant Staphylococcus aureus infected in male BALB/c mouse model of skin wound infection assessed as reduction in wound area at 2 mg/kg, ip measured after 6 to 36 hrs postinfection; type: functional, organism-based; conditions: time 6-36 hrs

For `CC(C)CCCCC(=O)N[C@@H](CCN)C(=O)N[C@H](C(=O)N[C@@H](CCN)C(=O)N[C@H]1CCNC(=O)[C@H]([C@@H](C)O)NC(=O)[C@H](CCN)NC(=O)[C@H](CCN)NC(=O)[C@H](CC(C)C)NC(=O)[C@@H](Cc2ccccc2)NC(=O)[C@@H](CCN)NC1=O)[C@@H](C)O.CC[C@H](C)CCCCC(=O)N[C@@H](CCN)C(=O)N[C@H](C(=O)N[C@@H](CCN)C(=O)N[C@H]1CCNC(=O)[C@H]([C@@H](C)O)NC(=O)[C@H](CCN)NC(=O)[C@H](CCN)NC(=O)[C@H](CC(C)C)NC(=O)[C@@H](Cc2ccccc2)NC(=O)[C@@H](CCN)NC1=O)[C@@H](C)O`, the Activity (Klebsiella pneumoniae [1]) was “Active”, the Activity (Klebsiella pneumoniae [2]) was “Active” and the Activity (Klebsiella pneumoniae [3]) was “Active”. The Activity (Klebsiella pneumoniae [4]) was “Active”, the Activity (Klebsiella pneumoniae [5]) was “Active” and the Activity (Klebsiella pneumoniae [6]) was “Active”. For the same compound, the Activity (Escherichia coli [7]) was greater than 20%, the Activity (Escherichia coli [8]) was “inactive” and the Activity (Cell membrane [9]) was “Dose-dependent-effect”. The Activity (Cell membrane [10]) was “Active; Compound Showed Slightly Inferior Activity Than Compound D8”, the Activity (Cell membrane [11]) was “Active; Compound Showed Lower Efficacy Than Positive Control 0.1% Tritionx 100” and the Activity (Cell membrane [12]) was “Weak_effect”. For the same compound, the Activity (Lipopolysaccharide (LPS)) was “Active”, the Activity (Staphylococcus aureus [13]) was “inactive” and the Activity (Staphylococcus aureus [14]) was “Active”. For the same compound, the Activity (Escherichia coli [15]) was “Active”, the Activity (Klebsiella pneumoniae [16]) was “inactive” and the Activity (Staphylococcus aureus [17]) was “Active”.
